# Results as given in patent publication US20150328109A1, “DERMAL COMPOSITIONS CONTAINING UNNATURAL HYGROSCOPIC AMINO ACIDS” (MEDPHARM LIMITED, priority 2012, published 2015).
# Experiments:
# [1] = Snake study: water uptake into snake skin after treatment with amino acid solution; design: species or system Elaphe guttata, the American corn snake; details: 24 h treatment with 1.33M amino acid solution, dried, then 40% RH
# Description: • All experiments were performed in triplicate (i.e. three separate solutions, three pieces of skin, one per solution). […] Each piece was weighed and placed directly into one the of the amino acid solutions, one piece of snake skin per solution. • After 1 hour, the snake skin was removed from the solution and blotted dry on filter paper. The weight of the snake skin was recorded before the same snake skin was returned to the amino acid solution. • After an additional 23 hours (24 hours in total), the snake skin was again blotted dry on filter paper and weighed. • The snake skin, now having absorbed the test amino acid, was then placed in a vacuum desiccator over silica (0% RH) for 48 hours before being weighed.
# • A 10% w/w concentration solution of each compound is made by stirring the compound (100 mg) in water (1 mL). Three separate solutions of each compound are made separately so that the experiment can be carried out in triplicate simultaneously. […] The weight of the snake skin is recorded before the same snake skin is returned to the same compound solution. • After an additional 23 hours (24 hours in total), the snake skin is again blotted dry on filter paper and weighed. • The snake skin is then placed in a vacuum desiccator over silica (0% relative humidity (RH)) for 48 hours before being weighed. […]
# RHE tissues = experiment: RHE irritation assessment Method 2: Mattek's MTT effective time (ET-50) assay; format: cell-based, human; details: for ET-50 (exposure time to reduce viability to 50% of the control): 1% w/v N-H-G in water, dosing periods 2, 6 and 24 h
# Source text: Method 1 was used to investigate the potential for alpha-hydroxylglycine (α-H-G) and L-homoserine (L-h-S) to cause skin irritation. The protocol is primarily designed and validated for single compounds rather than solutions. Therefore to provide further insight into the potential of N-hydroxyserine and N-hydroxylglycine to cause skin irritation a second protocol was investigated using Mattek's MTT effective time (ET-50) assay which is designed to test mixtures of compounds. In addition two commercially available amino acid related compound (L-serine and glycine) were selected and tested as comparators for N-hydroxyserine and N-hydroxylglycine. […] As a general guideline, the following groupings can be used in assigning expected in vivo irritancy responses based on the ET-50 results obtained: The irritation assessment of the solutions was performed using the protocol described below. Each of the test solutions; […] Damaged tissues were discarded. • (iii) The tissue were transferred into the assay medium and incubated at 37° C., 5% CO2 until the application of the test solutions; […] The working MTT solution was prepared using the following procedure: • (i) MTT concentrate was removed from the freezer and allowed to thaw. The concentrate was diluted with the MTT diluent solution (1 mL of concentrate to 4 mL of MTT diluent solution). • (ii) MTT solution from Step (i) was centrifuged at a g-force of 300 for 5 min to remove any particulates. • (iii) The supernatant of the MTT solution from Step (ii) was stored in the dark at 4° C. for a maximum period of 24 h and used as required. […] The plates were incubated for 3 h (+/−5 min) at 37° C., 5% CO2 and 95% humidified atmosphere. • (vi) The treated tissues were subsequently transferred into a new plate filled with 1 mL of extractant solution. • (vii) The plates were sealed using Parafilm® to stop evaporation and protected from light using foil before extract at 2-8° C. to minimise evaporation. • (viii) Following extraction the RHE tissue were removed from the wells and an additional 1 mL of extractant solution was added. Using a pipette the extraction solution was mixed and made visually homogenous. • (ix) The solution from Step (viii) was transferred in to n=3 wells (200 μL per well) using an automatic pipette of a 96 well plate and the optical density was measured at a wavelength of 570 nm.
# Normal RHE tissue = experiment: Tissue viability (MTT) of normal RHE tissue during 6 day treatment; format: cell-based, human; details: 10% w/v, n = 1
# Description: In this investigation two types of RHE tissues were used, which were healthy and psoriatic tissue sourced from the MatTek Corporation (Ashland, Mass.). For simplicity the protocol below refers to both tissue types as RHE tissues and all media as assay medium as both tissues were treated in the same manner. The only exception was that two different types of media were required for the different types of tissue (healthy and psoriatic tissues).
# • (i) At the end of the equilibration period, the media for each well was removed then the tissues were lifted and placed on culture stands and fresh pre-warmed (37° C.) assay medium (5 mL) was added to the well. • (ii) Using a positive displacement pipette, the test solutions 10% w/v, N-H-S(N-hydroxyserine) in water, […], N-H-G (N-hydroxyglycine) in water, 10% w/v, L-h-S (L-homoserine) in water and 10% w/v, combination 1:1:1 (N-H-S:N-H-G: L-h-S) in water were dispensed (50±0.5 μL) onto the top of the RHE tissue. The solutions or controls were then distributed over the surface of the RHE tissues using a sterile glass rod. • (iii) The lid was placed on the well plate containing the RHE tissue and the tissues were returned to the incubator (37° C., 5% CO2) 48 h between applications.
# • (i) Every 48 h culture media for the RHE tissues was removed from the 6 well plates and transferred into tubes stored (−20° C.) for cytokine analysis. • (ii) Fresh pre-warmed (37° C.) assay medium (5 mL) was added to each tissue using an automatic pipette. • (iii) From each treatment 1 tissue was removed for viability assessment. • (iv) The RHE tissues were subsequently rinsed with 100 μL of PBS to remove the residual solution from the epidermal surface. • (v) Using a positive displacement pipette, the solutions 10% w/v, N-H-S in water, 1% w/v, N-H-G in water, 10% w/v, L-h-S in water and 10% w/v, combination 1:1:1 (N-H-S:N-H-G:L-h-S) were dispensed (50±0.5 μL) onto the top of the RHE tissue. The solutions or controls were then distributed over the surface of the RHE tissues using a sterile glass rod. • (vi) The lid was placed on the well plate containing the RHE tissue and the tissues were returned to the incubator (37° C., 5% CO2) 48 h between applications at t=0, 48 and 96 h.
# To determine the viability of the RHE tissue post application of the solutions and controls, the following procedure was used: • (i) The required wells in 24-well plates were filled with 300 μL MTT solution and protected from light. • (ii) The tissues were removed from the post treatment incubation plates and excess solutions and controls were removed with sterile cotton swabs. • (iii) The RHE tissue was subsequently rinsed with 1000 μL of PBS five times to remove the residual solution from the epidermal surface. • (iv) The tissue from Step (iii) was blotted dry with cotton swabs. • (v) The treated tissues from Step (iv) were transferred into wells in 24-well plates pre-filled with MTT solution (300 μL). The plates were incubated for 3 h (+/−5 min) at 37° C., 5% CO2 and 95% humidified atmosphere. • (vi) The treated tissues were subsequently transferred into a new plate filled with 1 mL of extractant solution. • (vii) The plates were sealed using Parafilm® to stop evaporation and protected from light using foil before extract at 2-8° C. to minimise evaporation. • (viii) Following extraction the RHE tissue were removed from the wells and an additional 1 mL of extractant solution was added. Using a pipette the extraction solution was mixed and made visually homogenous. • (ix) The solution from Step (viii) was transferred in to n=3 wells (200 μL per well) using an automatic pipette of a 96 well plate and the optical density was measured at a wavelength of 570 nm.
SMILES,average percentage weight increase after 24 h at 40% RH [1],"impact on the viability of the RHE tissues (RHE tissues; dosing periods t=2, 6 and 24 h, 1% w/v N-H-G, 10% w/v L-Serine, 10% w/v Glycine)",Normal RHE tissue viability as a percentage of untreated control (%) (Normal RHE tissue; 2 days in treatments),Normal RHE tissue viability as a percentage of untreated control (%) (Normal RHE tissue; 4 days in treatments),Normal RHE tissue viability as a percentage of untreated control (%) (Normal RHE tissue; 6 days in treatments),ET-50 (exposure time to reduce viability to 50% of the control) (RHE tissues; 10% w/v N-H-S) [h],"ET-50 (exposure time to reduce viability to 50% of the control) (RHE tissues; 10% w/v N-H-S, listed as N-H-S) [h]","expected in vivo irritancy from ET-50 (RHE tissues; 10% w/v N-H-S, 1% w/v N-H-G, 10% w/v L-Serine, 10% w/v Glycine in water)"
N[C@@H](CCO)C(=O)O [L-homoserine],particularly advantageous properties,–,–,–,–,–,–,–
"O=C(O)CNO [N-hydroxyglycine, N-Hydroxyglycine]",–,no significant impact,97.9,91.5,93.3,–,–,–
O=C(O)[C@H](CO)NO [N-hydroxyserine],–,–,83.4,91.5,86.9,12 to 24,22.8,very mild (12-24 very mild)
